Literature values as cited in US12109217B2, “Bioactive agents included in functionalized starch having a single helix V-structure” (B-ORGANIC FILMS CORP., priority 2014, dated 2024).
Where two headings read alike, the source gives them in different places. Each block holds one compound with its values, some of them ahead of it.

Experiments:
[1] = in vivo

oral bioavailability [1]: about 30%
Structure (SMILES): C[C@@H]1CC[C@H]2[C@@H](C)C(=O)O[C@@H]3O[C@@]4(C)CC[C@@H]1[C@]32OO4 [Artemisinin]

solubility in water (neutral pH): insoluble in water
solubility (pH 1-2 (similar to gastric pH)): freely soluble
Structure (SMILES): COC(=O)[C@H](c1ccccc1Cl)N1CCc2sccc2C1 [Clopidogrel bisulfate]

solubility (water / aqueous medium (and oil where stated)): poorly soluble in aqueous medium
Structure (SMILES): CC(=O)O[C@H]1C(=O)[C@@]2(C)[C@H]([C@H](OC(=O)c3ccccc3)[C@]3(O)C[C@H](OC(=O)[C@H](O)[C@@H](NC(=O)c4ccccc4)c4ccccc4)C(C)=C1C3(C)C)[C@]1(OC(C)=O)CO[C@@H]1C[C@@H]2O [Paclitaxel]
